Where two headings read alike, the source gives them in different places.
What was measured:
Format in all cases: physicochemical
[1] = Equilibrium solubility in simulated fluids and water at 37° C.; conditions: for pH (24 hr): dimesylate; for solubility at 24 h: above calibration range
Protocol: The solubility Compound A⋅2MSA, Patterns A, B and I, was measured in water, fasted state simulated gastric fluid (FaSSGF) and fasted state simulated intestinal fluid (FaSSIF) at 37° C. by slurrying in the respective media for 24 hours. 1.5 mL of the fluid was stirred at 37° C. About 5 mg of the specified solid was added to FaSSIF and a thin slurry was immediately formed. As a test, approximately 80 and 60 mg of Pattern A was added to 1.5 mL of water and FaSSGF, respectively without formation of a slurry. Therefore, about 10 mg of the desired Pattern was added to water and FaSSGF solutions. The samples were allowed to stir at 37° C. for 24 hrs. The stir bars were removed from the FaSSIF vials and the solids allowed to settle for 0.5 hours at 37° C. The supernatant/solutions were syringe filtered and recovered for analysis by HPLC as well as for pH measurement.

[2] = Dynamic Vapor Sorption (DVS)
Protocol: Dynamic Vapor Sorption (DVS) was done using a DVS Intrinsic 1. The sample is loaded into a sample pan and suspended from a microbalance. A typical sample mass for DVS measurement is 25 mg. Nitrogen gas bubbled through distilled water provides the desired relative humidity.
A typical measurement comprises the steps: • 1—Equilibrate at 50% RH • 2-50% to 2%. (50%, 40%, 30%, 20%, 10% and 2%) • a. Hold minimum of 5 mins and maximum of 240 minutes at each humidity. The pass criteria is less than 0.002% change • 3-2% to 95% (2%, 10%, 20%, 30%, 40%, 50%, 60%, 70%, 80%, 90%, 95%) • a. Hold minimum of 5 mins and maximum of 240 minutes at each humidity. The pass criteria is less than 0.002% change • 4-95% to 2% (95%, 80%, 70%, 60%, 50%, 40%, 30%, 20%, 10%, 2%) • a. Hold minimum of 5 mins and maximum of 240 minutes at each humidity. The pass criteria is less than 0.002% change • 5-2% to 50% (2%, 10%, 20%, 30%, 40%, 50%) • a. Hold minimum of 5 mins and maximum of 240 minutes at each humidity. The pass criteria is less than 0.002% change Dynamic Vapor Sorption Isotherm Plots of Solid Forms of Compound A⋅2MSA

[3] = Storage at ambient conditions (XRPD); conditions: 21-22° C., 10-40% RH, a week
Protocol: Characterization after storage under ambient conditions: Pattern B was left at ambient conditions (21-22° C., 10-40% RH) for a week then characterized by)(RFD, TGA/DSC, and water content measured by Karl-Fischer titration. […] The water content was confirmed by KF titration which yielded a value of 4.20 wt. %.
Compound A⋅2MSA (Pattern A, 0.2622 g) was added to a 20 mL vial with a stir bar. Fifteen volumes (3.93 mL) of EtOH was added and the slurry was stirred overnight (˜20 hours). The slurry was sampled to confirm the correct pattern was generated, then the solids were collected by filtration. The resultant yellow solid was dried in a vacuum oven at 50° C. under dynamic vacuum for 2 hours, then under static vacuum overnight (˜16 hours) to yield 0.2015 g (77% yield). The in-situ sample drawn was dried for 3 hours then the solid was used for characterization by solution ^1H-NMR spectroscopy and simultaneous TGA/DSC. The bulk was dried overnight and used for stand-alone DSC, and thermal treatment.
(§1) Compound A⋅2MSA (Pattern A) was slurried in EtOH overnight at room temperature (ca. 16 hours). […] The bulk was dried in a vacuum oven at 50° C. under dynamic vacuum for 4.5 hours. The dried solids were removed from the oven and a “dry” XRPD analysis was collected.
Compound A⋅2MSA (Pattern A, 0.2659 g) was added to a 20 mL vial with a stir bar. Twenty-five volumes (6.65 mL) of ACN was added and the slurry was stirred overnight (˜20 hours). The slurry was sampled to confirm the correct pattern was generated, then the solids were collected by filtration. The resultant yellow solid was dried in a vacuum oven at 50° C. under dynamic vacuum for 2 hours, then under static vacuum overnight (˜16 hours) to yield 0.2255 g (85% yield). The sample drawn was dried for 3 hours then the solid was used for characterization by solution ^1H-NMR spectroscopy and simultaneous TGA/DSC. The bulk was dried overnight and used for stand-alone DSC.

[4] = Stability of XRPD pattern on drying
Protocol: Short term slurries were carried out at two temperatures in 14 solvents. About 25 mg solid was added to a 2 mL vial followed by 0.70 mL of solvent. If all solids dissolved, more solid was added until a slurry was formed within reason. Slurries were stirred at constant temperature for four days (ambient temperature, 21-23° C.; or high temperature, 50° C.). After stirring for four days, solids were allowed to settle and were then recovered for XRPD analysis. XRPD analysis was performed on the wet cake, and if a new pattern was observed, the sample was dried in a vacuum oven at 50° C. for a minimum of 4 hours, then the dried sample was analyzed by XRPD.
Stability on Drying: A sample of Pattern B was prepared on an XRPD sample holder and analysed by XRPD to create a baseline. The disk was then left in a vacuum oven at 50° C. under static vacuum for 3 days. On the third day, the sample was removed from the oven and the “dry” pattern was recorded immediately.
as §1

[5] = Kinetic solubility studies in FaSSIF and FeSSIF; conditions: 37° C.; for solubility thermodynamic at 1 day: thermodynamic from solid, read-out: Concentration
Protocol: The solubility of the dimesylate (Pattern B) and mono-HCl salts of Compound A was determined in FaSSIF (pH 6.5) at 37° C. after a slurry time of 5, 20 and 40 minutes. FaSSIF was warmed to 37° C. and added to a vial of ca. 9 mg of the salt to mark t=0. The mixture was kept stirring at 37° C. and a sample drawn with a syringe at t+5, 20 and 40 minutes. The samples were syringe filtered and the filtrate was diluted 2× to ensure no precipitation while waiting for HPLC analysis. The pH of the solution collected at 40 minutes was measured. The slurry was sampled again the following day and the supernatant from syringe filtration was analyzed directly by HPLC without dilution. The same experiment was run with FeSSIF (pH 5.0).

comments ([1]; FaSSGF (pH 1.70), 24 hrs): dissolved
pH (24 hr) ([1]; FaSSGF (pH 1.70)): 1.80
solubility at 24 h ([1]; FaSSGF, 37 °C, pH 1.7, fassgf or other biorelevant, thermodynamic from solid, FaSSGF (pH 1.70), 24 hrs, mg of Compound A (free base), read-out: Concentration): > 6570 µg/mL
comments ([1]; FaSSIF (pH 6.48), 24 hrs): disproportionated
pH (24 hr) ([1]; FaSSIF (pH 6.48)): 6.02
solubility thermodynamic at 24 h ([1]; FaSSIF, 37 °C, pH 6.48, fassif, thermodynamic from solid, FaSSIF (pH 6.48), 24 hrs, mg of Compound A (free base), read-out: Concentration): 11 µg/mL
solubility at 24 h ([1]; water, 37 °C, water, thermodynamic from solid, water, 24 hrs, mg of Compound A (free base), read-out: Concentration): > 6250 µg/mL
comments ([1]; water, 24 hrs): dissolved
pH (24 hr) ([1]; water): 3.08
XRPD form after the DVS experiment ([2]; 2-95% RH, dimesylate): no change in form
reversible water uptake (DVS) ([2]; between 2% and 95% Relative Humidity (RH), dimesylate): 3.2 % w/w
total mass difference (DVS) ([2]; over the 2-95% RH range): 3.2 wt. %
mass change (DVS) ([2]; range of 10-80% RH): 1.3 wt. %
XRPD pattern after storage at ambient conditions [3]: identical to Pattern B
XRPD pattern upon drying ([4]; solids from short term slurries, vacuum oven at 50° C., minimum of 4 hours, dimesylate): stable upon drying
XRPD pattern after drying ([4]; vacuum oven at 50° C. under static vacuum for 3 days): matched Pattern B
pH of the solution collected at 40 minutes ([5]; FaSSIF (pH 6.5)): 6.22
Concentration ([5]; FaSSIF (pH 6.5), 5 min): 13 µg/mL
Concentration ([5]; FaSSIF (pH 6.5), 20 min): 15 µg/mL
Concentration ([5]; FaSSIF (pH 6.5), 40 min): 13 µg/mL
pH of the solution collected at 40 minutes ([5]; FeSSIF (pH 5.0)): 4.94
Concentration ([5]; FeSSIF (pH 5.0), 5 min): 559 µg/mL
Concentration ([5]; FeSSIF (pH 5.0), 20 min): 565 µg/mL
Concentration ([5]; FeSSIF (pH 5.0), 40 min): 559 µg/mL
solubility thermodynamic at 1 day ([5]; FaSSIF (pH 6.5)): 8 µg/mL
solubility thermodynamic at 1 day ([5]; FeSSIF (pH 5.0)): 502 µg/mL
SMILES: CS(=O)(=O)O.CS(=O)(=O)O.N#Cc1cccc(-c2ccc3ncc(-c4cc(F)cc(F)c4)c(N4CCC(N)CC4)c3c2)c1O [Pattern B, 3-(4-(4-aminopiperidin-1-yl)-3-(3,5-difluorophenyl)quinolin-6-yl)-2-hydroxybenzonitrile dimesylate]
